Laboratory results from patent US10632125B2, “MTH1 inhibitors for treatment of inflammatory and autoimmune conditions” (THOMAS HELLEDAYS STIFTELSE FÖR MEDICINSK FORSKNING, priority 2014, dated 2020).
pIC50: −log10 of the molar value.

Assays:
MTH1 = MTH1 (Homo sapiens, UniProt P36639); assay: MTH1 enzymatic assay (malachite green, coupled to pyrophosphatase); type: biochemical; settings: dGTP 100 μM, MTH1 6 nM; 96- or 384-well format; read-out: IC50
activated T-lymphocytes = assay: Cellular assay, primary T-lymphocytes activated with CD3/CD28 Dynabeads; type: cell-based, human
Method: (§1) Cellular Assay and IC50 Value Determination
(§2) Primary T-lymphocytes are isolated from donated human blood and thereafter activated with CD3/CD28 Dynabeads. The T-lymphocytes are treated with an MTH1 inhibitor, positive control or vehicle for 24-96 hrs. Cell viability can be measured by using standard assays, such as for instance a resazurin assay. In some experiments, the cells are stained with Cell Trace Violet at the start of the culture. The dye is diluted as the cells divide and gives a measurement of cell proliferation (see FIG. 1 for an example).

[1] = system: unactivated T-lymphocytes; assay: Cellular assay, unactivated primary T-lymphocytes; type: cell-based, human
Method: as §1
as §2, with “The” for “Primary T-lymphocytes are isolated from donated human blood and thereafter activated with CD3/CD28 Dynabeads. The”

SMILES | pIC50 (MTH1) | effect on activated T-lymphocytes (FIG. 1) (activated T-lymphocytes) | effect on unactivated T-lymphocytes (FIG. 1) [1]
Cc1c(Cl)cccc1-c1cc(NCCc2ccc(S(N)(=O)=O)cc2)nc(N)n1 [Example 297, 4-(2-{[2-amino-6-(3-chloro-2-methylphenyl)pyrimidin-4-yl]amino}ethyl)benzene-1-sulfonamide] | > 6.70 | selectively kills | unaffected
Cc1c(Cl)cccc1-c1cc(NCCc2ccc(Br)cc2)nc(N)n1 [Example 736, N4-[2-(4-bromophenyl)ethyl]-6-(3-chloro-2-methylphenyl)pyrimidine-2,4-diamine] | > 6.70 |  | 
Cc1c(Cl)cccc1-c1cc(NCCOc2ccc(Cl)cn2)nc(N)n1 [Example 746, 6-(3-chloro-2-methylphenyl)-N4-{2-[(5-chloropyridin-2-yl)oxy]ethyl}pyrimidine-2,4-diamine] | > 6.70 |  | 
Cc1c(Cl)cccc1-c1cc(NCCOc2ccc(C#N)cc2)nc(N)n1 [Example 747, 4-(2-{[2-amino-6-(3-chloro-2-methylphenyl)pyrimidin-4-yl]amino}ethoxy)benzonitrile] | > 6.70 |  | 

Second part, led by results:

pIC50 (MTH1) | SMILES | effect on activated T-lymphocytes (FIG. 1) (activated T-lymphocytes) | effect on unactivated T-lymphocytes (FIG. 1) [1]
> 6.70 | Cc1c(Cl)cccc1-c1cc(NCCc2cnccn2)nc(N)n1 [Example 735, 6-(3-chloro-2-methyl-phenyl)-N4-(2-pyrazin-2-ylethyl)pyrimidine-2,4-diamine] |  | 
> 6.70 | Cc1c(Cl)cccc1-c1nc(N)nc2c1CCN2 [Example 742, 4-(3-chloro-2-methylphenyl)-5H,6H,7H-pyrrolo[2,3-d]pyrimidin-2-amine] |  | 
> 6.70 | Cc1c(Cl)cccc1-c1nc(N)nc2c1C[C@@H](C)N2 [Example 743, (6R)-4-(3-Chloro-2-methylphenyl)-6-methyl-5H,6H,7H-pyrrolo[2,3-d]pyrimidin-2-amine] |  | 
